“And” between values parts separate entries of the source, which are not always exact repeats. Identical values can stand only once.
What was measured:
Format in all cases: in vivo, mice
[1] = system: IgM; assay: Serum level of IgM (ELISA); conditions: for Dose with significant increase in serum level of IgM: oral
Description: (§1) […] […] The control group was the mice feeding with an equal volume of saline (0.85% of NaCl). Mice were sacrificed at day five, and both the serum and spleen cells were collected. The sera were subsequently used to measure the concentration of IgG, IgM and IgA. The spleen cells were plated onto a 100 mm diameter culture plate and incubated at 37° C. for three hours. The non-adherent cells containing T-lymphocytes, B-lymphocytes and NK cells were collected and properly diluted as described in each assay.
(§2) The mouse to be sacrificed was cervical dislocated and sterilized with 70% ethanol. The cardiac punctuation was performed first to withdraw the blood. After the haemagglutination, the blood sample was subjected to centrifugation and the serum was collect. For isolation of spleen cells, the peritoneum was opened to remove the spleen. The fresh spleen was transferred to a culture plate containing 10 ml of RPMI-1640 culture medium. The spleen was then ground over a fine mesh to release the spleen cells. The spleen cells suspending in the medium were then removed and transferred to a 50-ml conical centrifuge tube. The tube was subjected to centrifugation at 1300 rpm for 10 min. The supernatant was discarded and the pellet was re-suspended in 1 ml of cold RBC lysing buffer containing EDTA-NH4Cl. The cells were incubated at room temperature for 10 min, followed by washing the cells three times with culture medium by centrifugation. The spleen cells were plated onto a 100 mm diameter culture plate and incubated at 37° C. for three hours. The non-adherent cells containing T-lymphocytes, B-lymphocytes and NK cells were collected and properly diluted as described in each assay.
(§3) An ELISA was performed in our study to measure the immunoglobulin concentration. Briefly, the spleen cells (5×10^5 cells/ml) were cultured in a medium containing RPMI 1640 supplemented with 10% fetal bovine serum (FBS), 2 mM L-glutamine, antibiotics and 5 μg/ml lipopolysaccharide (LPS; 1 μg/10^5 cells) for 5 days. LPS is a polyclonal activator of B lymphocyte. Culture spleen cell supernatants were collected at day 3, 4 and 5. IgA, IgG and IgM concentrations were measured using a sandwich ELISA technique.
(§4) The procedure for IgM assay was similar to that for IgG assay, except that the samples were 1/10^4 diluted and standard IgM ranged from 1 μg/ml to 0.0156 μg/ml were added (100 μl/well). The secondary antibody for the assay was HRP-conjugated goat anti-mouse IgM (1:1,000 diluted; heavy chain-specific; Zymed Laboratory, CA).

[2] = system: IgM; assay: IgM secretion by spleen cells in vitro (LPS, ELISA) after oral administration; conditions: for Dose with significant increase in IgM secretion by spleen cells: oral, after three days of in vitro culture
Description: as §1, §2, §3, §4

[3] = system: IFN-γ; assay: IFN-γ secretion by Con A-stimulated spleen cells (ELISA) after oral administration; conditions: for IFN-γ secretion by spleen cell: Con A; for Dose with significantly augmented IFNγ secretion by ConA-stimulated splenic T cells: oral
Description: (§5) For the drug treatment, the animals were divided into four groups and oral administration with 1 ml of PCM, ranging from 10, 40 to 80 mg/kg/day, for four days. […] The control group was the mice feeding with an equal volume of saline (0.85% of NaCl). Mice were sacrificed at day five, and both the serum and spleen cells were collected. The sera were subsequently used to measure the concentration of IgG, IgM and IgA. The spleen cells were plated onto a 100 mm diameter culture plate and incubated at 37° C. for three hours. The non-adherent cells containing T-lymphocytes, B-lymphocytes and NK cells were collected and properly diluted as described in each assay.
as §2
(§6) For the quantitative analysis of IFN-γ and IL-10, the spleen cells (1×10^6 cells/ml) were cultured in a medium containing RPMI 1640 supplemented with 10% fetal bovine serum (FBS), 2 mM L-glutamine, antibiotics and 1 μg/ml concanavalin A (Con A) for 3 days. Con A is one of the polyclonal activators for T lymphocyte. Culture spleen cell supernatants were collected. The IFNγ and IL-10 concentrations were measured using a cytokine ELISA set (Cyto Set ELISA kit) purchased from R&D Systems (MN, USA).
(§7) Cyto Set ELISA was performed as follows: A 96-well microtiter plate (Nunc-Immuno Plate, MaxiSorp, Nunc, Denmark) was precoated with capture antibodies at 4° C. overnight. The capture antibody was a rat monoclonal antibody to mouse IL-10. The samples to be tested and standard IL-10 ranged from 500 pg/ml to 15.6 pg/ml were added (100 μl/well). The plate was then incubated at 37° C. for 20 min. At the end of incubation, the plate was washed five times, followed by adding the biotinylated goat anti IL-10 polyclonal antibody. The color was developed by incubating the plate with a HRP-conjugated streptoavidin (Zymed, CA, USA), followed by a substrate solution containing hydrogen peroxide and tetramethylbenzidine (TMB). The reaction continued for 30 min at room temperature, and was stopped by adding 100 μl of 2N of sulfuric acid. The absorbence at 450 nm in each well was read using an ELISA reader (EL311, BioTek, Winooski, Vt.), and the data was analyzed using log-logit model.
Cyto Set ELISA of IFN-γ was similar to that of IL-10, except that the capture antibody was a rat monoclonal antibody to mouse IFN-γ, and secondary antibody was biotinylated goat anti IFN-γ polyclonal antibody.
(§8) TH1-type cytokines, such as interleukin-2 (IL-2), interferon-γ (IFN-γ) induces the cellular immune response. Whereas, TH2-type cytokines, such as interleukin-4 (IL-4), interleukin-5 (IL-5), interleukin-6 (IL-6), stimulates the B lymphocyte-mediated humoral immune response. […] Spleen cells isolated from the mice treated with PCM and its purified components, such as PCM-K1, -K2, -K3 and K4, were cultured for five days in the presence of ConA. […]

[4] = system: IL-10; assay: IL-10 secretion by Con A-stimulated spleen cells (ELISA) after oral administration
Description: as §5, §2, §6, §7
as §8, with “ConA. The amount of interferon-γ (IFNγ; TH1-type cytokine) and interleukin-10 (IL-10; TH2-type cytokine) secreted by the spleen T lymphocytes was measured (Table 7.1 & Table 7.2).” for “ConA.”

[5] = system: immune cells (T cells/B cells); assay: Immunity response tests (overall statement); conditions: Table 2 to Table 10
Description: The Poria extract and the purified compounds from the Poria extract by chromatography prepared according to the methods of the present invention were tested by various immunity response experiments listed in the following.

[6] = oral 10 mg/kg/day for four days
[7] = oral 20 mg/kg/day for four days

Compound	Dose with significant increase in serum level of IgM [1]	Serum immunoglobulin concentration IgM ([1]; oral 5 mg/kg/day for four days)	Serum immunoglobulin concentration IgM [1, 6]	Serum immunoglobulin concentration IgM [1, 7]	IgM secretion by spleen cell, incubation day 3 ([2]; oral 5 mg/kg/day for four days)	IgM secretion by spleen cell, incubation day 4 ([2]; oral 5 mg/kg/day for four days)	IgM secretion by spleen cell, incubation day 5 ([2]; oral 5 mg/kg/day for four days)	IgM secretion by spleen cell, incubation day 3 [2, 6]	IgM secretion by spleen cell, incubation day 4 [2, 6]	IgM secretion by spleen cell, incubation day 5 [2, 6]	IgM secretion by spleen cell, incubation day 3 [2, 7]	IgM secretion by spleen cell, incubation day 4 [2, 7]	IgM secretion by spleen cell, incubation day 5 [2, 7]	Dose with significant increase in IgM secretion by spleen cells [2]	IFN-γ secretion by spleen cell ([3]; oral 5 mg/kg/day for four days)	IFN-γ secretion by spleen cell [3, 6]	IFN-γ secretion by spleen cell [3, 7]	IL-10 secretion by spleen cell ([4]; oral 5 mg/kg/day for four days)	IL-10 secretion by spleen cell [4, 6]	IL-10 secretion by spleen cell [4, 7]	other results
C=C(CC[C@@H](C(=O)O)[C@H]1[C@H](O)C[C@@]2(C)C3=CC[C@H]4C(C)(C)C(=O)CC[C@]4(C)C3=CC[C@]12C)C(C)C [K3]	5 mg/kg/day	1.63 ± 0.11 mg/mL	1.53 ± 0.14 mg/mL	1.53 ± 0.13 mg/mL	222.42 ± 42.83	214.45 ± 28.51	277.52 ± 101.63	287.66 ± 44.44	294.30 ± 30.68	309.51 ± 30.88	372.14 ± 69.48	519.53 ± 52.63	606.44 ± 88.10	10 mg/kg/day	917.07 ± 130.41 pg/mL	449.74 ± 100.67 pg/mL	176.20 ± 45.96 pg/mL	262.09 ± 108.41 pg/mL	86.48 ± 33.26 pg/mL	98.74 ± 27.05 pg/mL	Dose with significantly augmented IFNγ secretion by ConA-stimulated splenic T cells ([3]; listed as PCM-K3): 5 mg/kg/day and 10 mg/kg/day; Dosage at which potent [5]: potent at dosage low than 2.5 or 5.0; Immunity enhancement in immune cells (T cells/B cells) (in words) [5]: immunity enhancement activities
C=C(CCC(C(=O)O)C1C(O)CC2(C)C3=CCC4C(C)(CCC(O)C4(C)C)C3=CCC12C)C(C)C (stereo not shown) [K4]	5 mg/kg/day	2.65 ± 0.21 mg/mL	2.86 ± 0.16 mg/mL	2.36 ± 0.16 mg/mL	463.65 ± 76.41	688.17 ± 85.78	649.89 ± 70.09	514.45 ± 70.30	733.58 ± 95.70	807.32 ± 104.21	747.6 ± 128.42	746.50 ± 157.76	857.49 ± 92.19	≥ 5 mg/kg/day	240.45 ± 107.83 pg/mL	252.26 ± 103.76 pg/mL	292.00 ± 77.77 pg/mL	128.91 ± 45.46 pg/mL	197.39 ± 68.73 pg/mL	155.91 ± 26.16 pg/mL	Dose with significantly augmented IFNγ secretion by ConA-stimulated splenic T cells [3]: 20 mg/kg/day; Dosage at which potent [5]: potent at dosage low than 2.5 or 5.0; Immunity enhancement in immune cells (T cells/B cells) (in words) [5]: immunity enhancement activities

From patent US9056067B2, “Pharmaceutical composition for enhancing immunity, and extract of Poria” (Sinphar Pharmaceutical Co., Ltd., priority 2003, dated 2015)
